Measured values published in publication PMC3193053 (Analytical chemistry, 2011).

Test system: VHH T9
Experiment: Cross-reactivity of the TCC competitive ELISA set up with VHH T9
Format: binding, Lama glama
Settings: CR% = IC50 (TCC) ÷ IC50 (cross-reacting compound) × 100

Row | Compound | CR (%)
1 | O=C(Nc1ccc(Cl)c(Cl)c1)Nc1ccc(Cl)cc1O [2′-OH TCC] | 16.9%
2 | O=C(Nc1ccc(Cl)c(Cl)c1)Nc1ccc(Cl)c(Cl)c1 [3,3′,4,4′-Tetrachloro-carbanilide] | 2.46%
3 | O=C(Nc1ccc(Cl)cc1)Nc1ccc(Cl)c(C(F)(F)F)c1 [3-Trifluoromethyl-4,4′-dichlorocarbanilide] | 6.97%
4 | O=C(Nc1ccc(Cl)cc1)Nc1ccc(Cl)cc1 [4,4′-Dichlorocarbanilide] | 13.3%
5 | O=C(Nc1ccccc1)Nc1ccccc1 [Carbanilide] | 1.78%
6 | O=C(Nc1ccc(Cl)c(Cl)c1)Nc1ccc(Cl)cc1OS(=O)(=O)O [Sulfate of 2′-OH TCC] | <0.1%
7 | O=C(Nc1ccc(Cl)cc1)Nc1ccc(Cl)c(Cl)c1 [TCC, 3,4,4′-trichlorocarbanilide] | 100%
8 | Oc1cc(Cl)ccc1Oc1ccc(Cl)cc1Cl [Triclosan] | <0.1%
9 | CC(=O)N1CCC(NC(=O)Nc2ccc(OC(F)(F)F)cc2)CC1 [sEHi, #1555] | <0.1%
10 | CS(=O)(=O)N1CCC(NC(=O)Nc2ccc(OC(F)(F)F)cc2)CC1 [sEHi, #1709] | <0.1%
11 | Dinuron | <0.1%
